Test system: MIN6 cells
Test: Insulin secretion assay in MIN6 cells treated with palmitate with or without Cannabidiol
Assay type: cell-based, mouse
Conditions: 10 μM Cannabidiol, 0.4 mM palmitate coupled to 0.92% BSA for 48 h; 2.8 or 25 mM glucose for 1 h
Experimental: FIG. 11 is a graphical represenatation showing that an inhibitor of Id1 expression (Cannabidiol) protects MIN6 beta cells against lipid (palmitate)-induced insulin secretory dysfunction. Cells were treated with either 0.92% BSA or 0.92% BSA coupled to 0.4 mM palmitate for 48 h, in combination with the absence or presence of 10 μM Cannabidiol. Insulin secretion assay was performed. After 30-min preincubation in KRB medium containing 2.8 mM glucose, the cells were incubated in KRB medium containing either 2.8 mM glucose (clear bars) or 25 mM glucose (dark bars) for 1 h. Medium was taken to determine levels of insulin secretion. Insulin secretion expressed as fold change compared with Control cells incubated with 25 mM glucose. Results are means±SE. The MIN6 cell line was also used to examine the effects of inhibition of Id1 on lipid-induced insulin secretory dysfunction. MIN6 cells were grown in DMEM. Cells were seeded at 2×10^5 cells per well in 24-well plates. Cells were treated with either 0.92% BSA or 0.92% BSA coupled to 0.4 mM palmitate for 48 h, in combination with the absence or presence of 10 μM Cannabidiol. After chronic incubation, cells were washed in KRB buffer containing 2.8 mM glucose, and then they were preincubated for a further 30 min in 0.5 ml of the same medium at 37° C. […]

## C=C(C)[C@@H]1CCC(C)=C[C@H]1c1c(O)cc(CCCCC)cc1O [Cannabidiol]
  protection against palmitate-induced insulin secretory dysfunction: protected the cells against palmitate-induced insulin secretory dysfunction

Source: US20130171158A1, “TREATMENT OF ABNORMALITIES OF GLUCOSE METABOLISM WITH AN ANTAGONIST OF INHIBITOR OF DIFFERENTIATION 1” (GARVAN INSTITUTE OF MEDICAL RESEARCH, priority 2010, published 2013)
